Legend:
Assay in all cases: relative viability (nuclei count vs DMSO), 5 days (fraction); higher = more cells survive
A-427 = test system: A-427
Method in brief: (§1)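 After 5 days of treatment, lung cancer cells in 1536-well plates were fixed and stained in a single step (final 0.05% Triton X-100, 1% formaldehyde, 1 ug/ml Hoechst) and their nuclei counted on 4× images. Treatment had been applied by pin tool the day after seeding as one drug alone or as a fixed anchor-drug dose with five library-drug doses (not always all listed) in √10 steps. Relative viability is the nuclei count of treated wells divided by that of vehicle wells, and values are medians of duplicate plates.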

H3255 = test system: H3255
Method in brief: as §1

HARA = test system: HARA
Method in brief: as §1

HCC-15 = test system: HCC-15
Method in brief: as §1

HCC-366 = test system: HCC-366
Method in brief: as §1

LXF-289 = test system: LXF-289
Method in brief: as §1

NCI-H1437 = test system: NCI-H1437
Method in brief: as §1

NCI-H1755 = test system: NCI-H1755
Method in brief: as §1

NCI-H1793 = test system: NCI-H1793
Method in brief: as §1

NCI-H1915 = test system: NCI-H1915
Method in brief: as §1

NCI-H1975 = test system: NCI-H1975
Method in brief: as §1

NCI-H2009 = test system: NCI-H2009
Method in brief: as §1

NCI-H2023 = test system: NCI-H2023
Method in brief: as §1

NCI-H2405 = test system: NCI-H2405
Method in brief: as §1

NCI-H3122 = test system: NCI-H3122
Method in brief: as §1

NCI-H441 = test system: NCI-H441
Method in brief: as §1

NCI-H460 = test system: NCI-H460
Method in brief: as §1

NCI-H596 = test system: NCI-H596
Method in brief: as §1

NCI-H650 = test system: NCI-H650
Method in brief: as §1

PC-14 = test system: PC-14
Method in brief: as §1

PC-3 [JPC-3] = test system: PC-3 [JPC-3]
Method in brief: as §1

SK-LU-1 = test system: SK-LU-1
Method in brief: as §1

UMC-11 = test system: UMC-11
Method in brief: as §1

O=C(O)CCCCC(CCSCc1ccccc1)SCc1ccccc1 (centres undefined) [CPI-613] + CC(=O)Nc1cccc(-n2c(=O)n(C3CC3)c(=O)c3c(Nc4ccc(I)cc4F)n(C)c(=O)c(C)c32)c1 [Trametinib] (partner 0.02 µM)
relative viability (A-427; first compound 5 µM): 0.716
relative viability (A-427; first compound 15.81 µM): 0.766
relative viability (A-427; first compound 50 µM): 0.682
relative viability (A-427; first compound 158.11 µM): 0.476
relative viability (A-427; first compound 500 µM): 0.391
relative viability (H3255; first compound 5 µM): 0.61
relative viability (H3255; first compound 15.81 µM): 0.6
relative viability (H3255; first compound 50 µM): 0.654
relative viability (H3255; first compound 158.11 µM): 0.62
relative viability (H3255; first compound 500 µM): 0.598
relative viability (HARA; first compound 5 µM): 0.805
relative viability (HARA; first compound 15.81 µM): 0.57
relative viability (HARA; first compound 50 µM): 0.849
relative viability (HARA; first compound 158.11 µM): 0.362
relative viability (HARA; first compound 500 µM): 0.0485
relative viability (HCC-15; first compound 5 µM): 0.387
relative viability (HCC-15; first compound 15.81 µM): 0.363
relative viability (HCC-15; first compound 50 µM): 0.363
relative viability (HCC-15; first compound 158.11 µM): 0.167
relative viability (HCC-15; first compound 500 µM): 0.0261
relative viability (HCC-366; first compound 5 µM): 0.367
relative viability (HCC-366; first compound 15.81 µM): 0.321
relative viability (HCC-366; first compound 50 µM): 0.29
relative viability (HCC-366; first compound 158.11 µM): 0.12
relative viability (HCC-366; first compound 500 µM): 0.0064
relative viability (LXF-289; first compound 5 µM): 0.653
relative viability (LXF-289; first compound 15.81 µM): 0.659
relative viability (LXF-289; first compound 50 µM): 0.665
relative viability (LXF-289; first compound 158.11 µM): 0.446
relative viability (LXF-289; first compound 500 µM): 0.572
relative viability (NCI-H1437; first compound 5 µM): 0.49
relative viability (NCI-H1437; first compound 15.81 µM): 0.431
relative viability (NCI-H1437; first compound 50 µM): 0.467
relative viability (NCI-H1437; first compound 158.11 µM): 0.0999
relative viability (NCI-H1437; first compound 500 µM): 0.0568
relative viability (NCI-H1755; first compound 5 µM): 0.712
relative viability (NCI-H1755; first compound 15.81 µM): 0.775
relative viability (NCI-H1755; first compound 50 µM): 0.75
relative viability (NCI-H1755; first compound 158.11 µM): 0.702
relative viability (NCI-H1755; first compound 500 µM): 0.69
relative viability (NCI-H1793; first compound 5 µM): 0.429
relative viability (NCI-H1793; first compound 15.81 µM): 0.413
relative viability (NCI-H1793; first compound 50 µM): 0.405
relative viability (NCI-H1793; first compound 158.11 µM): 0.225
relative viability (NCI-H1793; first compound 500 µM): 0.0839
relative viability (NCI-H1915; first compound 5 µM): 0.292
relative viability (NCI-H1915; first compound 15.81 µM): 0.284
relative viability (NCI-H1915; first compound 50 µM): 0.299
relative viability (NCI-H1915; first compound 158.11 µM): 0.216
relative viability (NCI-H1915; first compound 500 µM): 0.148
relative viability (NCI-H1975; first compound 5 µM): 0.395
relative viability (NCI-H1975; first compound 15.81 µM): 0.355
relative viability (NCI-H1975; first compound 50 µM): 0.272
relative viability (NCI-H1975; first compound 158.11 µM): 0.348
relative viability (NCI-H1975; first compound 500 µM): 0.0712
relative viability (NCI-H2009; first compound 5 µM): 0.319
relative viability (NCI-H2009; first compound 15.81 µM): 0.257
relative viability (NCI-H2009; first compound 50 µM): 0.302
relative viability (NCI-H2009; first compound 158.11 µM): 0.081
relative viability (NCI-H2009; first compound 500 µM): 0.027
relative viability (NCI-H2023; first compound 5 µM): 0.57
relative viability (NCI-H2023; first compound 15.81 µM): 0.605
relative viability (NCI-H2023; first compound 50 µM): 0.499
relative viability (NCI-H2023; first compound 158.11 µM): 0.0445
relative viability (NCI-H2023; first compound 500 µM): 0.0048
relative viability (NCI-H2405; first compound 5 µM): 0.633
relative viability (NCI-H2405; first compound 15.81 µM): 0.633
relative viability (NCI-H2405; first compound 50 µM): 0.619
relative viability (NCI-H2405; first compound 158.11 µM): 0.494
relative viability (NCI-H2405; first compound 500 µM): 0.479
relative viability (NCI-H3122; first compound 5 µM): 0.232
relative viability (NCI-H3122; first compound 15.81 µM): 0.25
relative viability (NCI-H3122; first compound 50 µM): 0.295
relative viability (NCI-H3122; first compound 158.11 µM): 0.215
relative viability (NCI-H3122; first compound 500 µM): 0.227
relative viability (NCI-H441; first compound 5 µM): 0.426
relative viability (NCI-H441; first compound 15.81 µM): 0.429
relative viability (NCI-H441; first compound 50 µM): 0.343
relative viability (NCI-H441; first compound 158.11 µM): 0.322
relative viability (NCI-H441; first compound 500 µM): 0.003
relative viability (NCI-H460; first compound 5 µM): 0.128
relative viability (NCI-H460; first compound 15.81 µM): 0.132
relative viability (NCI-H460; first compound 50 µM): 0.116
relative viability (NCI-H460; first compound 158.11 µM): 0.0278
relative viability (NCI-H460; first compound 500 µM): 0.0229
relative viability (NCI-H596; first compound 5 µM): 0.823
relative viability (NCI-H596; first compound 15.81 µM): 0.732
relative viability (NCI-H596; first compound 50 µM): 0.765
relative viability (NCI-H596; first compound 158.11 µM): 0.34
relative viability (NCI-H596; first compound 500 µM): 0.036
relative viability (NCI-H650; first compound 5 µM): 0.969
relative viability (NCI-H650; first compound 15.81 µM): 0.994
relative viability (NCI-H650; first compound 50 µM): 0.849
relative viability (NCI-H650; first compound 158.11 µM): 0.929
relative viability (NCI-H650; first compound 500 µM): 0.889
relative viability (PC-14; first compound 5 µM): 0.651
relative viability (PC-14; first compound 15.81 µM): 0.549
relative viability (PC-14; first compound 50 µM): 0.72
relative viability (PC-14; first compound 158.11 µM): 0.108
relative viability (PC-14; first compound 500 µM): 0.0098
relative viability (PC-3 [JPC-3]; first compound 5 µM): 0.659
relative viability (PC-3 [JPC-3]; first compound 50 µM): 0.712
relative viability (PC-3 [JPC-3]; first compound 158.11 µM): 0.321
relative viability (PC-3 [JPC-3]; first compound 500 µM): 0.433
relative viability (SK-LU-1; first compound 5 µM): 0.452
relative viability (SK-LU-1; first compound 15.81 µM): 0.477
relative viability (SK-LU-1; first compound 50 µM): 0.365
relative viability (SK-LU-1; first compound 158.11 µM): 0.366
relative viability (SK-LU-1; first compound 500 µM): 0.129
relative viability (UMC-11; first compound 5 µM): 0.632
relative viability (UMC-11; first compound 15.81 µM): 0.703
relative viability (UMC-11; first compound 50 µM): 0.437
relative viability (UMC-11; first compound 158.11 µM): 0.495
relative viability (UMC-11; first compound 500 µM): 0.0937
